# Where a name gives a salt, the structure may show the parent alone. Read-outs that look alike come from different tables or passages of the source.
# Key:
# [1] = system: S. aureus and P. aeruginosa; conditions: HCl Conc. 0.001 M, Table 7
# Method: (§1) Agar plates and cultures of S. aureus, P. aeruginosa, and Enterobacter aerogenes (E. aerogenes) were set up as described in EXPERIMENT 8. […] Cultures were diluted to 1×10^8 CFU/ml.
# (§2) From each of the test solution, 20 μL was then dispensed over the Kirby Bauer diffusion disks. The disks were air dried for five minutes and using forceps applied over the agar plates. Plates were then incubated for 24 hours at 37° C. Subsequently the zones of inhibition were measured, in millimeters (mm) using calipers. Each test was run in triplicate.
# [2] = system: Enterobacter aerogenes (E. aerogenes); test: Kirby-Bauer disk diffusion in HCl agar; format: cell-based; conditions: for E. aerogenes Avg. ZOI: 5-FU 256 ppm
# Method: as §1, §2
# [3] = system: S. aureus and P. aeruginosa
# From the text: One centimeter long catheter segments were cut from Multi-lumen Central Venous Catheters (CVC) from Rifampin and Minocycline impregnated CVCs (Rif/Mino). Cultures of S. aureus and P. aeruginosa were started in Muller Hinton Broth. For each organism, concentration of the inoculum was adjusted to 1×10^8 CFU/ml using 0.5 McFarland standard. […] Plates were sneaked with a single organism using a sterile cotton applicator that was dipped into the broth culture. Using sterile forceps, 1 cm long catheter segments from the control and Rif/Mino catheters were vertically inserted into the agar. Plates were then incubated for 24 hours at 37° C. Each test was run in triplicate. Subsequently the zones of inhibition (ZOI) were measured, in millimeters (mm) using calipers and the three ZOI measurements for each test were averaged.
# [4] = system: S. aureus; conditions: for S. Aureus Avg. ZOI, HCl Alone: Table 8
# Method: as §1, §2
Structure (SMILES),Avg. ZOI HCl Alone [1] [mm],"E. aerogenes Avg. ZOI, HCl Alone ([2]; HCl Conc. 0.01 M, Table 9) [mm]","Avg. ZOI HCl Alone ([3]; HCl Conc. 0.001 M, Table 6) [mm]",highest HCl concentration that allowed formation of a confluent lawn of organisms ([3]; Muller Hinton Agar plates) [M],"S. Aureus Avg. ZOI, HCl Alone ([4]; HCl Conc. 0.001 M) [mm]","S. Aureus Avg. ZOI, HCl Alone ([4]; HCl Conc. 0.01 M) [mm]",E. aerogenes Avg. ZOI ([2]; HCl Conc. 0 M) [mm],E. aerogenes Avg. ZOI ([2]; HCl Conc. 0.01 M) [mm],effect of HCl on inhibition ([2]; HCl concentration of 0.01 M),"S. Aureus Avg. ZOI ([4]; 5-FU 8 ppm, HCl Conc. 0 M) [mm]","S. Aureus Avg. ZOI ([4]; 5-FU 8 ppm, HCl Conc. 0.001 M) [mm]","S. Aureus Avg. ZOI ([4]; 5-FU 8 ppm, HCl Conc. 0.01 M) [mm]","S. Aureus Avg. ZOI ([4]; 5-FU 16 ppm, HCl Conc. 0 M) [mm]","S. Aureus Avg. ZOI ([4]; 5-FU 16 ppm, HCl Conc. 0.001 M) [mm]","S. Aureus Avg. ZOI ([4]; 5-FU 16 ppm, HCl Conc. 0.01 M) [mm]"
"Cl [HCl, hydrochloric acid]",0,0,0,0.01,0,0,–,–,–,–,–,–,–,–,–
"O=c1[nH]cc(F)c(=O)[nH]1 [5-FU, 5-Fluorouracil]",–,–,–,–,–,–,16.15,18.95,enhanced inhibition,0.0,0.0,13.8,10.0,11.5,21.4
